# Reference: PubChem BioAssay (NCI)
#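 Five compound concentrations were applied to cells in 96-well plates for 48 hours; endpoints were derived by simple linear interpolation of the resulting dose-response curve. TGI marks complete inhibition of growth.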
# Legend:
# Experiment in all cases: NCI tumour cell line growth inhibition, 48 h
# OVCAR-8 ovarian = tested on: OVCAR-8 ovarian
# IGROV1 ovarian = tested on: IGROV1 ovarian
# SK-OV-3 ovarian = tested on: SK-OV-3 ovarian
# DU-145 prostate = tested on: DU-145 prostate
# NCI/ADR-RES ovarian = tested on: NCI/ADR-RES ovarian
# KM12 colon = tested on: KM12 colon
# SW-620 colon = tested on: SW-620 colon
# EKVX NSCLC = tested on: EKVX NSCLC
# COLO 205 colon = tested on: COLO 205 colon
# HCC-2998 colon = tested on: HCC-2998 colon
# SF-268 CNS = tested on: SF-268 CNS
# BT-549 breast = tested on: BT-549 breast
# OVCAR-5 ovarian = tested on: OVCAR-5 ovarian
# NCI-H460 lung = tested on: NCI-H460 lung
# MDA-N = tested on: MDA-N
# MOLT-4 leukemia = tested on: MOLT-4 leukemia
# MDA-MB-435 = tested on: MDA-MB-435
# MDA-MB-231 breast = tested on: MDA-MB-231 breast
# A498 renal = tested on: A498 renal
# SN12C renal = tested on: SN12C renal
# MCF7 breast = tested on: MCF7 breast
# U251 CNS = tested on: U251 CNS
# HL-60(TB) leukemia = tested on: HL-60(TB) leukemia
# CCRF-CEM leukemia = tested on: CCRF-CEM leukemia
# ACHN renal = tested on: ACHN renal
# SF-295 CNS = tested on: SF-295 CNS
# SK-MEL-2 melanoma = tested on: SK-MEL-2 melanoma
# LOX IMVI melanoma = tested on: LOX IMVI melanoma
# NCI-H226 lung = tested on: NCI-H226 lung
# CAKI-1 renal = tested on: CAKI-1 renal
# SNB-19 CNS = tested on: SNB-19 CNS
# SF-539 CNS = tested on: SF-539 CNS
# SK-MEL-28 melanoma = tested on: SK-MEL-28 melanoma
# OVCAR-4 ovarian = tested on: OVCAR-4 ovarian
# UO-31 renal = tested on: UO-31 renal
# A549 NSCLC = tested on: A549 NSCLC
# MALME-3M melanoma = tested on: MALME-3M melanoma
# HS 578T breast = tested on: HS 578T breast
# RXF 393 renal = tested on: RXF 393 renal
# 786-0 renal = tested on: 786-0 renal
# HT29 colon = tested on: HT29 colon
# HCT-15 colon = tested on: HCT-15 colon
# M14 melanoma = tested on: M14 melanoma
# T-47D breast = tested on: T-47D breast
# TK-10 renal = tested on: TK-10 renal
# NCI-H23 lung = tested on: NCI-H23 lung
# HCT-116 colon = tested on: HCT-116 colon
# UACC-62 melanoma = tested on: UACC-62 melanoma
# RPMI-8226 leukemia = tested on: RPMI-8226 leukemia
# HOP-62 NSCLC = tested on: HOP-62 NSCLC
# SNB-75 CNS = tested on: SNB-75 CNS
# PC-3 prostate = tested on: PC-3 prostate
# NCI-H522 lung = tested on: NCI-H522 lung
# UACC-257 melanoma = tested on: UACC-257 melanoma
# SR leukemia = tested on: SR leukemia
# HOP-92 NSCLC = tested on: HOP-92 NSCLC
# SK-MEL-5 melanoma = tested on: SK-MEL-5 melanoma
# K-562 leukemia = tested on: K-562 leukemia
# OVCAR-3 ovarian = tested on: OVCAR-3 ovarian
# M19-MEL melanoma = tested on: M19-MEL melanoma
# LXFL 529 NSCLC = tested on: LXFL 529 NSCLC
# XF 498 CNS = tested on: XF 498 CNS
# DLD-1 colon = tested on: DLD-1 colon
# KM20L2 colon = tested on: KM20L2 colon
# HOP-18 NSCLC = tested on: HOP-18 NSCLC
# SNB-78 CNS = tested on: SNB-78 CNS
compound,measurement,setting,value
O=C(N/N=C/C=C/c1ccc([N+](=O)[O-])o1)c1ccc(C(=O)N/N=C/C=C/c2ccc([N+](=O)[O-])o2)cc1,TGI,OVCAR-8 ovarian,27.7 µM
same,TGI,IGROV1 ovarian,> 100 µM
same,TGI,SK-OV-3 ovarian,> 100 µM
same,TGI,DU-145 prostate,> 73.4 µM
same,TGI,NCI/ADR-RES ovarian,> 92.8 µM
same,TGI,KM12 colon,> 100 µM
same,TGI,SW-620 colon,98.5 µM
same,TGI,EKVX NSCLC,> 100 µM
same,TGI,COLO 205 colon,> 100 µM
same,TGI,HCC-2998 colon,> 28.5 µM
same,TGI,SF-268 CNS,> 58.5 µM
same,TGI,BT-549 breast,> 100 µM
same,TGI,OVCAR-5 ovarian,> 100 µM
same,TGI,NCI-H460 lung,> 88.5 µM
same,TGI,MDA-N,> 84.8 µM
same,TGI,MOLT-4 leukemia,> 43.6 µM
same,TGI,MDA-MB-435,> 73.8 µM
same,TGI,MDA-MB-231 breast,97.3 µM
same,TGI,A498 renal,> 100 µM
same,TGI,SN12C renal,> 54.5 µM
same,TGI,MCF7 breast,> 100 µM
same,TGI,U251 CNS,> 52.8 µM
same,TGI,HL-60(TB) leukemia,> 65.2 µM
same,TGI,CCRF-CEM leukemia,> 20.3 µM
same,TGI,ACHN renal,> 59.1 µM
same,TGI,SF-295 CNS,> 100 µM
same,TGI,SK-MEL-2 melanoma,> 100 µM
same,TGI,LOX IMVI melanoma,> 75.8 µM
same,TGI,NCI-H226 lung,> 100 µM
same,TGI,CAKI-1 renal,> 90 µM
same,TGI,SNB-19 CNS,> 100 µM
same,TGI,SF-539 CNS,22.3 µM
same,TGI,SK-MEL-28 melanoma,> 100 µM
same,TGI,OVCAR-4 ovarian,> 100 µM
same,TGI,UO-31 renal,> 100 µM
same,TGI,A549 NSCLC,> 100 µM
same,TGI,MALME-3M melanoma,35.2 µM
same,TGI,HS 578T breast,> 100 µM
same,TGI,RXF 393 renal,84 µM
same,TGI,786-0 renal,> 72.1 µM
same,TGI,HT29 colon,> 100 µM
same,TGI,HCT-15 colon,> 100 µM
same,TGI,M14 melanoma,49.7 µM
same,TGI,T-47D breast,> 69.2 µM
same,TGI,TK-10 renal,> 69.7 µM
same,TGI,NCI-H23 lung,> 100 µM
same,TGI,HCT-116 colon,25.7 µM
same,TGI,UACC-62 melanoma,> 100 µM
same,TGI,RPMI-8226 leukemia,> 32.9 µM
same,TGI,HOP-62 NSCLC,> 100 µM
same,TGI,SNB-75 CNS,> 100 µM
same,TGI,PC-3 prostate,> 52.3 µM
same,TGI,NCI-H522 lung,89 µM
same,TGI,UACC-257 melanoma,> 30 µM
same,TGI,SR leukemia,> 73.4 µM
same,TGI,HOP-92 NSCLC,> 100 µM
same,TGI,SK-MEL-5 melanoma,99.7 µM
same,TGI,K-562 leukemia,> 93.5 µM
same,TGI,OVCAR-3 ovarian,> 100 µM
CCOCc1cc(=O)c2c(OC)cc3c(c2o1)CCC(C)(C)O3,TGI,OVCAR-8 ovarian,> 100 µM
same,TGI,IGROV1 ovarian,> 100 µM
same,TGI,SK-OV-3 ovarian,> 100 µM
same,TGI,KM12 colon,> 100 µM
same,TGI,SW-620 colon,> 100 µM
same,TGI,EKVX NSCLC,> 100 µM
same,TGI,HCC-2998 colon,> 100 µM
same,TGI,OVCAR-5 ovarian,> 100 µM
same,TGI,NCI-H460 lung,> 100 µM
same,TGI,M19-MEL melanoma,> 100 µM
same,TGI,MOLT-4 leukemia,> 100 µM
same,TGI,SN12C renal,> 100 µM
same,TGI,U251 CNS,> 100 µM
same,TGI,HL-60(TB) leukemia,> 100 µM
same,TGI,CCRF-CEM leukemia,> 100 µM
same,TGI,LXFL 529 NSCLC,> 100 µM
same,TGI,ACHN renal,> 100 µM
same,TGI,XF 498 CNS,> 100 µM
same,TGI,SF-295 CNS,> 100 µM
same,TGI,SK-MEL-2 melanoma,> 100 µM
same,TGI,LOX IMVI melanoma,> 100 µM
same,TGI,SF-539 CNS,> 100 µM
same,TGI,DLD-1 colon,> 100 µM
same,TGI,SK-MEL-28 melanoma,> 100 µM
same,TGI,OVCAR-4 ovarian,> 100 µM
same,TGI,UO-31 renal,> 100 µM
same,TGI,KM20L2 colon,> 100 µM
same,TGI,A549 NSCLC,> 100 µM
same,TGI,MALME-3M melanoma,> 100 µM
same,TGI,RXF 393 renal,> 100 µM
same,TGI,786-0 renal,> 100 µM
same,TGI,HT29 colon,> 100 µM
same,TGI,HCT-15 colon,> 100 µM
same,TGI,M14 melanoma,> 100 µM
same,TGI,TK-10 renal,> 100 µM
same,TGI,NCI-H23 lung,> 100 µM
same,TGI,HCT-116 colon,> 100 µM
same,TGI,UACC-62 melanoma,> 100 µM
same,TGI,HOP-18 NSCLC,> 100 µM
same,TGI,HOP-62 NSCLC,> 100 µM
same,TGI,SNB-75 CNS,> 100 µM
same,TGI,NCI-H522 lung,> 100 µM
same,TGI,UACC-257 melanoma,> 100 µM
same,TGI,SNB-78 CNS,> 100 µM
same,TGI,SR leukemia,> 100 µM
same,TGI,HOP-92 NSCLC,> 100 µM
same,TGI,SK-MEL-5 melanoma,> 100 µM
same,TGI,K-562 leukemia,> 100 µM
same,TGI,OVCAR-3 ovarian,> 100 µM
